Measurements: publication PMC10893631, “Receptor-based pharmacophore modeling, molecular docking, synthesis and biological evaluation of novel VEGFR-2, FGFR-1, and BRAF multi-kinase inhibitors” (BMC Chemistry, 2024)

Tests used:
Experiment in all cases: NCI SRB growth inhibition (single dose 10 µM / five-dose)
Type in all cases: cell-based, human
A498 = conditions: Homo sapiens; A498 (Renal cancer), 10 µM; read-out: GI%
Summary of the method: (§1)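 Two-stage NCI-60 screen: single-dose test first, then five-dose testing. Growth is scored by sulforhodamine B staining of TCA-fixed cells relative to a time-zero plate, and TGI is taken where Ti = Tz.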

ACHN = conditions: Homo sapiens; ACHN (Renal cancer), 10 µM; read-out: GI%
Summary of the method: as §1

COLO 205 = conditions: Homo sapiens; COLO 205 (Colon cancer), 10 µM; read-out: GI%
Summary of the method: as §1

HCC-2998 = conditions: Homo sapiens; HCC-2998 (Colon cancer), 10 µM; read-out: GI%
Summary of the method: as §1

HCT-15 = conditions: Homo sapiens; HCT-15 (Colon cancer), 10 µM; read-out: GI%
Summary of the method: as §1

HOP-62 = conditions: Homo sapiens; HOP-62 (Non-small cell lung cancer), 10 µM; read-out: GI%
Summary of the method: as §1

HOP-92 = conditions: Homo sapiens; HOP-92 (Non-small cell lung cancer), 10 µM; read-out: GI%
Summary of the method: as §1

HT29 = conditions: Homo sapiens, HT-29; HT29 (Colon cancer), 10 µM; read-out: GI%
Summary of the method: as §1

IGROV1 = conditions: Homo sapiens, IGROV-1; IGROV1 (Ovarian cancer), 10 µM; read-out: GI%
Summary of the method: as §1

LOX IMVI = conditions: Homo sapiens; LOX IMVI (Melanoma), 10 µM; read-out: GI%
Summary of the method: as §1

MALME-3 M = conditions: Homo sapiens; MALME-3 M (Melanoma), 10 µM; read-out: GI%
Summary of the method: as §1

MOLT-4 = conditions: Homo sapiens; MOLT-4 (Leukemia), 10 µM; read-out: GI%
Summary of the method: as §1

NCI-H226 = conditions: Homo sapiens; NCI-H226 (Non-small cell lung cancer), 10 µM; read-out: GI%
Summary of the method: as §1

NCI-H23 = conditions: Homo sapiens; NCI-H23 (Non-small cell lung cancer), 10 µM; read-out: GI%
Summary of the method: as §1

NCI-H322M = conditions: Homo sapiens; NCI-H322M (Non-small cell lung cancer), 10 µM; read-out: GI%
Summary of the method: as §1

NCI/ADR-RES = conditions: Homo sapiens; NCI/ADR-RES (Ovarian cancer), 10 µM; read-out: GI%
Summary of the method: as §1

OVCAR-3 = conditions: Homo sapiens; OVCAR-3 (Ovarian cancer), 10 µM; read-out: GI%
Summary of the method: as §1

OVCAR-4 = conditions: Homo sapiens; OVCAR-4 (Ovarian cancer), 10 µM; read-out: GI%
Summary of the method: as §1

OVCAR-5 = conditions: Homo sapiens; OVCAR-5 (Ovarian cancer), 10 µM; read-out: GI%
Summary of the method: as §1

RPMI-8226 = conditions: Homo sapiens; RPMI-8226 (Leukemia), 10 µM; read-out: GI%
Summary of the method: as §1

SK-MEL-2 = conditions: Homo sapiens; SK-MEL-2 (Melanoma), 10 µM; read-out: GI%
Summary of the method: as §1

SK-MEL-5 = conditions: Homo sapiens; SK-MEL-5 (Melanoma), 10 µM; read-out: GI%
Summary of the method: as §1

SNB-19 = conditions: Homo sapiens; SNB-19 (CNS cancer), 10 µM; read-out: GI%
Summary of the method: as §1

SNB-75 = conditions: Homo sapiens; SNB-75 (CNS cancer), 10 µM; read-out: GI%
Summary of the method: as §1

T-47D = conditions: Homo sapiens, T47D; T-47D (Breast cancer), 10 µM; read-out: GI%
Summary of the method: as §1

UACC-257 = conditions: Homo sapiens; UACC-257 (Melanoma), 10 µM; read-out: GI%
Summary of the method: as §1

Row | SMILES | inhibition at 10 µM (A498) [%] | inhibition at 10 µM (ACHN) [%] | inhibition at 10 µM (HCC-2998) [%] | inhibition at 10 µM (HCT-15) [%] | inhibition at 10 µM (HOP-92) [%] | inhibition at 10 µM (IGROV1) [%] | inhibition at 10 µM (LOX IMVI) [%] | inhibition at 10 µM (MALME-3 M) [%] | inhibition at 10 µM (MOLT-4) [%] | inhibition at 10 µM (NCI-H226) [%] | inhibition at 10 µM (NCI-H23) [%] | inhibition at 10 µM (NCI-H322M) [%] | inhibition at 10 µM (NCI/ADR-RES) [%] | inhibition at 10 µM (OVCAR-3) [%] | inhibition at 10 µM (OVCAR-4) [%] | inhibition at 10 µM (OVCAR-5) [%] | inhibition at 10 µM (RPMI-8226) [%] | inhibition at 10 µM (SK-MEL-5) [%] | inhibition at 10 µM (SNB-75) [%] | inhibition at 10 µM (UACC-257) [%] | further results
1 | O=C(NN=Cc1cccc(O)c1)c1ccc2[nH]c(-c3ccccc3)nc2c1 [8b, N'-(3-Hydroxybenzylidene)-2-phenyl-1H-benzo[d]imidazole-5-carbohydrazide] | < 5 | < 5 | < 5 | < 5 | < 5 | 13 | 7.43 | 39.7 | 31.5 | < 5 | < 5 | < 5 | < 5 | 11.1 | 12.4 | < 5 | 9.59 | 10.9 | 6.56 | < 5 | inhibition at 10 µM (COLO 205): < 5%; inhibition at 10 µM (HOP-62): 19.3%; inhibition at 10 µM (HT29): 16.4%; inhibition at 10 µM (SK-MEL-2): < 5%; inhibition at 10 µM (SNB-19): < 5%; inhibition at 10 µM (T-47D): 50.9%
2 | COc1cccc(C=NNC(=O)c2ccc3[nH]c(-c4ccccc4)nc3c2)c1 [8c, N'-(3-Methoxybenzylidene)-2-phenyl-1H-benzo[d]imidazole-5-carbohydrazide] | < 5 | < 5 | < 5 | 27.5 | < 5 | 10.1 | < 5 | 47.1 | 35.4 | 19.3 | 9.68 | 6.09 | 6.59 | 7.38 | 20.1 | < 5 | 81.6 | 39 | 11 | 14.6 | inhibition at 10 µM (COLO 205): 32.6%; inhibition at 10 µM (HOP-62): 15.4%; inhibition at 10 µM (HT29): 33.9%; inhibition at 10 µM (SK-MEL-2): 19.5%; inhibition at 10 µM (SNB-19): < 5%; inhibition at 10 µM (T-47D): 69.1%
3 | COc1ccc(OC)c(C=NNC(=O)c2ccc3[nH]c(-c4ccccc4)nc3c2)c1 [8f, N'-(2,5-Dimethoxybenzylidene)-2-phenyl-1H-benzo[d]imidazole-5-carbohydrazide] | < 5 | 36.5 | 8.92 | 65.2 | 7.1 | 11 | 62.5 | 40.5 | 49.5 | 49.5 | 46.7 | 12.3 | 24.5 | 12.5 | 37.8 | < 5 | 81.3 | 67.8 | < 5 | < 5 | inhibition at 10 µM (HT29): 14.7%; inhibition at 10 µM (SK-MEL-2): 16.7%; inhibition at 10 µM (SNB-19): 21.4%
4 | COc1cc(C=NNC(=O)c2ccc3[nH]c(-c4ccccc4)nc3c2)cc(OC)c1OC [8g, 2-Phenyl-N'-(3,4,5-trimethoxybenzylidene)-1H-benzo[d]imidazole-5-carbohydrazide] | < 5 | 33.8 | 44.3 | 38.4 | < 5 | 17 | 56.5 | 73.6 | 21.2 | 50.4 | 49.4 | 15.7 | < 5 | 29.4 | 21.9 | < 5 | 86.9 | 89.3 | < 5 | 54.3 | inhibition at 10 µM (HT29): 47.3%; inhibition at 10 µM (SK-MEL-2): 21.8%; inhibition at 10 µM (SNB-19): 25.2%
5 | COc1ccc(-c2nc3cc(C(=O)NN=Cc4cc(OC)c(OC)c(OC)c4)ccc3[nH]2)cc1 [8n, 2-(4-Methoxyphenyl)-N'-(3,4,5-trimethoxybenzylidene)-1H-benzo[d]imidazole-5-carbohydrazide] | < 5 | 9.17 | < 5 | < 5 | < 5 | < 5 | 7.53 | 76.8 | 22.1 | 22.3 | 10.8 | < 5 | < 5 | < 5 | < 5 | < 5 | 44.5 | 42.6 | < 5 | 25.6 | inhibition at 10 µM (COLO 205): 33.7%; inhibition at 10 µM (HOP-62): 14.6%; inhibition at 10 µM (SNB-19): 36.2%; inhibition at 10 µM (T-47D): 38.1%
6 | O=C(NN=Cc1cccc(O)c1)c1ccc2[nH]c(-c3ccc(Cl)cc3)nc2c1 [8p, 2-(4-Chlorophenyl)-N'-(3-hydroxybenzylidene)-1H-benzo[d]imidazole-5-carbohydrazide] | 10.2 | < 5 | 15.9 | < 5 | 6.79 | 5.71 | 14.7 | 58.9 | 68.6 | 30.1 | 56.6 | < 5 | < 5 | < 5 | 15.7 | < 5 | 56.7 | 69.5 | 7.89 | < 5 | inhibition at 10 µM (COLO 205): 34.6%; inhibition at 10 µM (HOP-62): 32.5%; inhibition at 10 µM (HT29): 19.9%; inhibition at 10 µM (SK-MEL-2): 24%; inhibition at 10 µM (T-47D): 79.8%
7 | COc1ccc(C=NNC(=O)c2ccc3[nH]c(-c4ccc(Cl)cc4)nc3c2)cc1O [8s, 2-(4-Chlorophenyl)-N'-(3-hydroxy-4-methoxybenzylidene)-1H-benzo[d]imidazole-5-carbohydrazide] | < 5 | < 5 | 86.8 | 23.3 | < 5 | < 5 | 44.9 | > 100 | 83.7 | 37.6 | 29.2 | 18.1 | < 5 | 47.5 | 20.8 | < 5 | > 100 | 53.3 | 6.41 | 24.6 | inhibition at 10 µM (HT29): > 100%; inhibition at 10 µM (SK-MEL-2): 76.1%; inhibition at 10 µM (SNB-19): 39.7%
